Source: publication PMC6897945, “CytA, a reductase in the cytorhodin biosynthesis pathway, inactivates anthracycline drugs in Streptomyces” (Communications Biology, 2019)
In brackets after ≈: the same amount, converted by molar mass. Read-outs that look alike come from different tables or passages of the source.

Legend:
Staphylococcus aureus = tested on: Staphylococcus aureus; design: method as in earlier work; details: 6 vs 3, 7 vs 4; cited from earlier work
[1] = Cytotoxic activity, MTT method; assay type: cell-based; details: human
Text: (§1) All data were obtained in triplicate and are presented as means.

[2] = tested on: HepG2 human hepatocellular carcinoma cell line; assay: Cytotoxic activity, MTT method; assay type: cell-based; details: HepG2, read-out: Cytotoxic activities IC50, HepG2
Text: as §1

[3] = tested on: HeLa human cervical carcinoma cell line; assay: Cytotoxic activity, MTT method; assay type: cell-based; details: read-out: Cytotoxic activities IC50, HeLa
Text: as §1

[4] = tested on: MCF-7 human breast adenocarcinoma cell line; assay: Cytotoxic activity, MTT method; assay type: cell-based; details: MCF7, read-out: Cytotoxic activities IC50, MCF-7
Text: as §1

[5] = tested on: MDA-MB-468 human triple negative breast adenocarcinoma cell line; assay: Cytotoxic activity, MTT method; assay type: cell-based; details: MDA-MB-468, read-out: Cytotoxic activities IC50, MDA-MB-468
Text: as §1

[6] = tested on: MDA-MB-231 human triple negative breast adenocarcinoma cell line; assay: Cytotoxic activity, MTT method; assay type: cell-based; details: MDA-MB-231, read-out: Cytotoxic activities IC50, MDA-MB-231
Text: as §1

[7] = tested on: A549 human lung cancer cell line; assay: Cytotoxic activity, MTT method; assay type: cell-based; details: A549, read-out: Cytotoxic activities IC50, A549
Text: as §1

[8] = tested on: RKO human colorectal carcinoma cell line; assay: Cytotoxic activity, MTT method; assay type: cell-based; details: read-out: Cytotoxic activities IC50, RKO
Text: as §1

B. subtilis BS01 = assay: Antibacterial activity, broth dilution MIC; assay type: cell-based; details: Bacillus subtilis, BS01, read-out: MIC values, BS
Description: (§2) The antibacterial activities of compounds 1–13 were assessed using twofold serial dilutions of antibacterial agents in MH broth, according to previously reported standard methods provided by Clinical and Laboratory Standards Institute (CLSI)[30]. These compounds were tested for their antibacterial activities against Bacillus subtilis BS01, Staphyloccocus aureus ATCC 29213, Staphyloccocus aureus 745524, Bacillus thuringiensis BT01, and Enterococcus faecalis ATCC 29212 using a broth dilution method.

E. faecalis ATCC 29212 = assay: Antibacterial activity, broth dilution MIC; assay type: cell-based; details: Enterococcus faecalis, ATCC29212, read-out: MIC values, EF
Description: as §2

[9] = tested on: Staphylococcus aureus ATCC 29213; assay: Antibacterial activity, broth dilution MIC; assay type: cell-based; details: Staphylococcus aureus, ATCC29213, read-out: MIC values, SA1
Description: as §2

[10] = tested on: Staphylococcus aureus 745524; assay: Antibacterial activity, broth dilution MIC; assay type: cell-based; details: Staphylococcus aureus, 745524, read-out: MIC values, SA2
Description: as §2

CytA [11] = assay: In vitro CytA enzymatic activity assay (HPLC analysis); assay type: biochemical, Streptomyces sp. SCSIO 1666; details: absence of O2 (anaerobic); 25 μM substrate, 0.5 μM CytA, 20 μM NADH, 37 °C
Text: To explore the biochemical activity of CytA in vitro, the cytA gene was cloned into the NdeI and EcoRI sites of the pET28a (+) vector and the resulting vector was transformed into E. coli BL21(DE3) using previously described methods. CytA was overexpressed as an N-terminally His6-tagged soluble protein and purified to homogeneity by Ni affinity chromatography (Fig. 2a). […] The activity of CytA was first investigated using substrates 6–9 and ε-rhodomycinone (10) under aerobic conditions. Reactions with CytA were conducted at 37 °C in a volume of 100 μL consisting of 50 mM Tris-Cl (pH 8.0), 25 μM substrate, 0.5 μM CytA, and 20 μM NADH. Reactions with boiled CytA served as controls; all reactions were carried out in parallel to ensure reaction consistency. Reactions were terminated by addition of twofold volume of methanol. As expected, CytA failed, under aerobic conditions to modify any of the substrates 6–10. […] On the heels of this finding we then determined the kinetic parameters of CytA using 6 and 7 as substrates.
Enzymatic reactions were carried out under anaerobic conditions in an anaerobic workstation (Don Whitley Scientific A45) containing a gas phase of N2/H2/CO2 (80:10: 10%, by vol.). ^1H, ^13C, and 2D (COSY, HMQC, HMBC and NOESY) NMR spectra were recorded at 25 °C with an Avance 700 MHz spectrometer instruments (Bruker). […]

CytA [12] = assay: Enzyme kinetics of CytA (formation of deglycosylation products, anaerobic); assay type: biochemical, Streptomyces sp. SCSIO 1666; details: for fold more efficient CytA processing than for 22–26: relative to clinical anthracyclines 22–26; for Km / kcat: substrate of CytA, 0.5 μM CytA, 20 μM NADH, anaerobic
Description: Enzymatic reactions were carried out under anaerobic conditions in an anaerobic workstation (Don Whitley Scientific A45) containing a gas phase of N2/H2/CO2 (80:10: 10%, by vol.). ^1H, ^13C, and 2D (COSY, HMQC, HMBC and NOESY) NMR spectra were recorded at 25 °C with an Avance 700 MHz spectrometer instruments (Bruker). High-resolution mass spectra were obtained with a Maxis quadrupole-time-of-flight mass spectrometer (Bruker).
To validate the in vitro biochemical activities of CytA, we overexpressed and purified this enzyme as a soluble N-terminally His6-tagged protein from E. coli (Fig. 2a). Tris-Cl buffer was made O2 free by boiling, followed by cooling under N2 flow; NADH stock solution (dissolved in Tris-Cl), substrate stock solution (dissolved in DMSO), and enzyme solution (dissolved in Tris-Cl supplemented with 10% glycerin) were subjected to O2 eliminating process in the anaerobic workstations for at least two cycles (40 min for one cycle). CytA enzymatic activity was tested in 50 μL volume containing 50 mM Tris-Cl (pH 8.0), 25 μM substrate, 0.5 μM CytA, and 20 μM NADH, at 37 °C for 30 min. The reaction was quenched with the addition to 2 volumes MeOH. After centrifugation to remove protein, supernatants were analyzed with Agilent HPLC equipment using a Phenomenex Prodigy ODS column S5 (150 × 4.60 mm, 5 μ) and UV detection at 254 and 500 nm. Samples were eluted with a gradient elution of phase A containing 0.1% TFA in ddH2O and phase B containing 100% acetonitrile, at a flow rate of 1 mL/min.
Kinetic analyses of CytA with putative substrates 6–10, daunorubicin, doxorubicin, idarubicin, epirubicin and pirarubicin, involved a reaction volume of 20 μL consisting of 50 mM Tris-Cl (pH 8.0), 0.5 μM CytA, 20 μM NADH, […]
All assays were performed in triplicate and Km and Vmax values were calculated on the basis of curve fitting to the Michaelis-Menten equation: v = Vmax *[S]/(Km + [S]) (Supplementary Fig. 7).
For kinetics of CytA, Origin 9.0 (OriginLab Co.) was used to analyze on the basis of curve fitting to the Michaelis-Menten equation. Experiments were performed in triplicate independently. For antibacterial activity, experiments were performed in triplicate using 96-well plates.

[13] = Huvec-12 normal cell line, read-out: Cytotoxic activities IC50, Huvec-12
[14] = L02 normal cell line, read-out: Cytotoxic activities IC50, L02

Compound	fold more active against Staphylococcus aureus than reduced congeners 3 and 4, respectively (Staphylococcus aureus) [fold]	IC50 [1, 13] [nM]	IC50 [1, 14] [nM]	IC50 [2] [nM]	IC50 [3] [nM]	IC50 [4] [nM]	IC50 [5] [nM]	IC50 [6] [nM]	IC50 [7] [nM]	IC50 [8] [nM]	MIC (B. subtilis BS01) [ng/mL]	MIC (E. faecalis ATCC 29212) [ng/mL]	MIC [9] [ng/mL]	MIC [10] [ng/mL]	conversion by CytA (C-7 reduction/deglycosylation) (CytA [11])	fold more efficient CytA processing than for 22–26 (CytA [12])	Km (CytA [12]) [µM]	kcat (CytA [12]) [s⁻¹]
CC[C@@]1(O)C[C@H](O[C@H]2C[C@H](N(C)C)[C@H](O[C@H]3C[C@H](O)[C@H](O[C@H]4CC[C@H](O)[C@H](C)O4)[C@H](C)O3)[C@H](C)O2)c2c(O)c3c(c(O)c2[C@H]1O[C@H]1C[C@H](N(C)C)[C@H](O[C@H]2C[C@H](O)[C@H](O[C@H]4CC[C@H](O)[C@H](C)O4)[C@H](C)O2)[C@H](C)O1)C(=O)c1cccc(O)c1C3=O [Compound 7, cosmomycin D]	> 100	300	130	31	110	510	1840	660	19	99	30 (≈ 25.2 nM)	2 (≈ 1.68 nM)	10 (≈ 8.41 nM)	5 (≈ 4.2 nM)	readily convert	2–3 fold	17.9	0.0132
CC[C@@]1(O)C[C@H](O[C@H]2C[C@H](N(C)C)[C@@H](O[C@H]3C[C@H](O)[C@@H](O[C@H]4CC[C@H](O)[C@H](C)O4)[C@H](C)O3)[C@H](C)O2)c2c(O)c3c(c(O)c2[C@H]1O[C@H]1C[C@H](N(C)C)[C@@H](O[C@H]2CC[C@H](O[C@H]4CC[C@H](O)[C@H](C)O4)[C@H](C)O2)[C@H](C)O1)C(=O)c1cccc(O)c1C3=O [Compound 6, cosmomycin C]	> 100	290	100	24	17	270	500	640	35	17	60 (≈ 51.1 nM)	1 (≈ 0.852 nM)	30 (≈ 25.6 nM)	5 (≈ 4.26 nM)	readily convert	2–3 fold	14.3	0.0118
